Measurements from patent US8012980B2, “Isoquinolinone derivatives” (AstraZeneca AB, priority 2008, dated 2011).

What follows are compounds tested against T1, human active recombinant p38 (p38α) (Homo sapiens, UniProt Q16539) (assay: p38 Alpha Enzyme Assay (AlphaScreen, biotinylated-ATF2 substrate)). Conditions: means of replicate determinations; pre-incubated for 4 hours at 37° C.; SD of assay between 0.2 and 0.3 log units; read-out: p38α inhibition Mean pIC50 (converted).
T1 construct: 6His
Type: biochemical
Protocol: The ability of the compounds of formula (I) to inhibit p38 kinase may be determined using the following biological assay:
Enzyme assays were performed in polypropylene 96 well plates. The following solutions were added to each well; 10 μL of compound dilutions in assay buffer (20 mM HEPES pH 7.4, containing 20 mM magnesium acetate, 0.005% (w/v) Tween-20, 10 mM DTT) containing 1% (v/v) DMSO or assay buffer containing 1% (v/v) DMSO alone, 70 μL of assay buffer containing 36 nM substrate (biotinylated-ATF2) and 10 μL of an appropriate dilution of human active recombinant p38-6H is tagged. Depending on batch of p38, an appropriate dilution was typically a 5 nM solution to give a final enzyme concentration of 0.5 nM. At this stage, background control wells also received 50 μL of AlphaScreen quench buffer (10 mM HEPES pH 7.4 containing 100 mM EDTA, 0.2% (w/v) bovine serum albumin). The plate was covered, pre-incubated for 4 hours at 37° C. and the enzyme reaction initiated by addition of 10 μL 1 mM ATP. After incubation for a further 45 minutes at 37° C., the reaction was stopped by addition of 50 μL quench reagent and 50 μL of the quenched reaction mixture transferred to an opaque, white 96-well plate. Detection reagent, 25 μL of 10 mM HEPES pH 7.4 containing 100 mM EDTA, 0.2% (w/v) bovine serum albumin, 0.3 nM anti phosphoATF2 antibody and 25 μg/mL of AlphaScreen protein A acceptor and donor beads' (PerkinElmer Inc.), was added to all wells in a darkened room, the plate sealed and left in the dark for at least 5 hours before AlphaScreen readings were taken using a Perkin Elmer EnVision reader. Total, uninhibited activity was determined from assays performed in each assay plate. The mean control in the absence of p38 activity was subtracted from each well. Data were expressed as percent inhibition of total activity using equation 1. Percent Inhibition=100*(1−Test/Control) Eq.1 Where . . . Test=p38 kinase activity in the presence of compound Control=p38 kinase activity in the absence of compound.
pIC50 is defined as the logarithm of the reciprocal of the concentration of compound required for 50% reduction in total p38 kinase activity.
The standard deviation of the p38 enzyme inhibition assay is between 0.2 and 0.3 log units.

T1 sequence (Q16539 whole entry): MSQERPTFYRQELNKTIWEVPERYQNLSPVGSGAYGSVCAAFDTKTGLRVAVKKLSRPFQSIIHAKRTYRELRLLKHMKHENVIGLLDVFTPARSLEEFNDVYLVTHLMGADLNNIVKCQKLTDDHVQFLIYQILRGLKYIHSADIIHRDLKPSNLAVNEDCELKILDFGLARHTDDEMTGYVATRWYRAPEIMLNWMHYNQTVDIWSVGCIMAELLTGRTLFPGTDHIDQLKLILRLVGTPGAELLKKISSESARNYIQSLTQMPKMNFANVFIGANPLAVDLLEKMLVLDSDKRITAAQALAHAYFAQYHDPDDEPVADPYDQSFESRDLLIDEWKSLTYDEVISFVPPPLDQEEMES

SMILES	IC50
Cc1c(F)cc(C(=O)NC2CC2)cc1-c1ccc2c(=O)n(CC3(CO)CC3)cc(CN3CCNC[C@H]3C)c2c1 [Example 33, N-Cyclopropyl-3-fluoro-5-(2-{[1-(hydroxymethyl)cyclopropyl]methyl}-4-{[(2R)-2-methylpiperazin-1-yl]methyl}-1-oxo-1,2-dihydroisoquinolin-6-yl)-4-methylbenzamide]	0.158 nM
Cc1c(F)cc(C(=O)NC2CC2)cc1-c1ccc2c(=O)n(CC3(CO)CC3)cc(CN3CCN[C@@H](C)C3)c2c1 [Example 34, N-Cyclopropyl-3-fluoro-5-(2-{[1-(hydroxymethyl)cyclopropyl]methyl}-4-{[(3S)-3-methylpiperazin-1-yl]methyl}-1-oxo-1,2-dihydroisoquinolin-6-yl)-4-methylbenzamide]	1 nM
Cc1c(F)cc(C(=O)NC2CC2)cc1-c1ccc2c(=O)n(CC(CO)CO)cc(CN3CCN[C@@H](C)C3)c2c1 [Example 35, N-Cyclopropyl-3-fluoro-5-(2-[3-hydroxy-2-(hydroxymethyl)propyl]-4-{[(3S)-3-methylpiperazin-1-yl]methyl}-1-oxo-1,2-dihydroisoquinolin-6-yl)-4-methylbenzamide]	5.01 nM
Cc1c(F)cc(C(=O)NC2CC2)cc1-c1ccc2c(=O)n(CC(C)(CO)CO)cc(CN3CCN[C@@H](C)C3)c2c1 [Example 36, N-Cyclopropyl-3-fluoro-5-(2-[3-hydroxy-2-(hydroxymethyl)-2-methylpropyl]-4-{[(3S)-3-methylpiperazin-1-yl]methyl}-1-oxo-1,2-dihydroisoquinolin-6-yl)-4-methylbenzamide]	3.16 nM
Cc1c(F)cc(C(=O)NC2CC2)cc1-c1ccc2c(=O)n(CC(C)(C)CO)cc(C(C)N3CCC(C)(N)CC3)c2c1 (stereo not shown) [Example 41, 3-{4-[1-(4-Amino-4-methylpiperidin-1-yl)ethyl]-2-(3-hydroxy-2,2-dimethylpropyl)-1-oxo-1,2-dihydroisoquinolin-6-yl}-N-cyclopropyl-5-fluoro-4-methylbenzamide]	0.631 nM
Cc1c(F)cc(C(=O)NC2CC2)cc1-c1ccc2c(=O)n(CC(C)(C)CO)cc(C(C)N3CCC[C@@H](N)C3)c2c1 (stereo partly drawn) [Example 42, 3-[4-{1-[(3R)-3-Aminopiperidin-1-yl]ethyl}-2-(3-hydroxy-2,2-dimethylpropyl)-1-oxo-1,2-dihydroisoquinolin-6-yl]-N-cyclopropyl-5-fluoro-4-methylbenzamide]	0.794 nM
Cc1c(F)cc(C(=O)NC2CC2)cc1-c1ccc2c(=O)n(CC(C)(C)CO)cc(C(C)N3CCCNCC3)c2c1 (stereo not shown) [Example 43, N-Cyclopropyl-3-{4-[1-(1,4-diazepan-1-yl)ethyl]-2-(3-hydroxy-2,2-dimethylpropyl)-1-oxo-1,2-dihydroisoquinolin-6-yl}-5-fluoro-4-methylbenzamide]	0.501 nM
Cc1c(F)cc(C(=O)NC2CC2)cc1-c1ccc2c(=O)n(CC(C)(C)CO)cc(C(C)N3CCN[C@@H](CO)C3)c2c1 (stereo partly drawn) [Example 44, N-Cyclopropyl-3-fluoro-5-[2-(3-hydroxy-2,2-dimethylpropyl)-4-{1-[(3R)-3-(hydroxymethyl)piperazin-1-yl]ethyl}-1-oxo-1,2-dihydroisoquinolin-6-yl]-4-methylbenzamide]	1.26 nM
Cc1c(F)cc(C(=O)NC2CC2)cc1-c1ccc2c(=O)n(CC(C)(C)CO)cc(C(C)N3CCN[C@@H](CO)C3)c2c1 (stereo partly drawn) [Example 45, N-Cyclopropyl-3-fluoro-5-[2-(3-hydroxy-2,2-dimethylpropyl)-4-{1-[(3R)-3-(hydroxymethyl)piperazin-1-yl]ethyl}-1-oxo-1,2-dihydroisoquinolin-6-yl]-4-methylbenzamide]	0.126 nM
Cc1c(F)cc(C(=O)NC2CC2)cc1-c1ccc2c(=O)n(CC(C)(C)CO)cc(S(=O)(=O)N3CCCNCC3)c2c1 [Example 46, N-Cyclopropyl-3-[4-(1,4-diazepan-1-ylsulfonyl)-2-(3-hydroxy-2,2-dimethylpropyl)-1-oxo-1,2-dihydroisoquinolin-6-yl]-5-fluoro-4-methylbenzamide]	0.158 nM
Cc1c(F)cc(C(=O)NC2CC2)cc1-c1ccc2c(=O)n(CC3CC3)cc(S(=O)(=O)N3CCNCC3)c2c1 [Example 47, N-Cyclopropyl-3-[2-(cyclopropylmethyl)-1-oxo-4-(piperazin-1-ylsulfonyl)-1,2-dihydroisoquinolin-6-yl]-5-fluoro-4-methylbenzamide]	0.251 nM

Further lines, results first:

IC50	SMILES
0.398 nM	Cc1c(F)cc(C(=O)NC2CC2)cc1-c1ccc2c(=O)n(CC3CC3)cc(S(=O)(=O)N3CCN(C)CC3)c2c1 [Example 48, N-Cyclopropyl-3-{2-(cyclopropylmethyl)-4-[(4-methylpiperazin-1-yl)sulfonyl]-1-oxo-1,2-dihydroisoquinolin-6-yl}-5-fluoro-4-methylbenzamide]
0.501 nM	Cc1c(F)cc(C(=O)NC2CC2)cc1-c1ccc2c(=O)n(CC(C)(C)CO)cc(S(=O)(=O)N3CCN[C@@H](CO)C3)c2c1 [Example 49, N-Cyclopropyl-3-fluoro-5-[2-(3-hydroxy-2,2-dimethylpropyl)-4-{[(3R)-3-(hydroxymethyl)piperazin-1-yl]sulfonyl}-1-oxo-1,2-dihydroisoquinolin-6-yl]-4-methylbenzamide]
0.2 nM	Cc1c(F)cc(C(=O)NC2CC2)cc1-c1ccc2c(=O)n(CC3CC3)cc(S(=O)(=O)N3CCC(N)CC3)c2c1 [Example 50, 3-{4-[(4-Aminopiperidin-1-yl)sulfonyl]-2-(cyclopropylmethyl)-1-oxo-1,2-dihydroisoquinolin-6-yl}-N-cyclopropyl-5-fluoro-4-methylbenzamide]
0.1 nM	Cc1c(F)cc(C(=O)NC2CC2)cc1-c1ccc2c(=O)n(CC3CC3)cc(S(=O)(=O)N3CCCNCC3)c2c1 [Example 51, N-cyclopropyl-3-[2-(cyclopropylmethyl)-4-(1,4-diazepan-1-ylsulfonyl)-1-oxo-1,2-dihydroisoquinolin-6-yl]-5-fluoro-4-methylbenzamide]
0.2 nM	CNC1CCN(S(=O)(=O)c2cn(CC3CC3)c(=O)c3ccc(-c4cc(C(=O)NC5CC5)cc(F)c4C)cc23)CC1 [Example 52, N-cyclopropyl-3-[2-(cyclopropylmethyl)-4-{[4-(methylamino)piperidin-1-yl]sulfonyl}-1-oxo-1,2-dihydroisoquinolin-6-yl]-5-fluoro-4-methylbenzamide]
0.398 nM	Cc1c(F)cc(C(=O)NC2CC2)cc1-c1ccc2c(=O)n(CC(C)(C)CO)cc(S(=O)(=O)N3CC[C@H](N)C3)c2c1 [Example 53, 3-[4-{[(3S)-3-Aminopyrrolidin-1-yl]sulfonyl}-2-(3-hydroxy-2,2-dimethylpropyl)-1-oxo-1,2-dihydroisoquinolin-6-yl]-N-cyclopropyl-5-fluoro-4-methylbenzamide]
0.251 nM	Cc1c(F)cc(C(=O)NC2CC2)cc1-c1ccc2c(=O)n(CC(C)(C)CO)cc(S(=O)(=O)N3CC[C@@H](N)C3)c2c1 [Example 54, 3-[4-{[(3R)-3-Aminopyrrolidin-1-yl]sulfonyl}-2-(3-hydroxy-2,2-dimethylpropyl)-1-oxo-1,2-dihydroisoquinolin-6-yl]-N-cyclopropyl-5-fluoro-4-methylbenzamide]
2.51 nM	Cc1c(F)cc(C(=O)NC2CC2)cc1-c1ccc2c(=O)n(CC(C)(C)CO)cc(S(=O)(=O)N3CCC[C@@H]3CN)c2c1 [Example 55, 3-[4-{[(2R)-2-(aminomethyl)pyrrolidin-1-yl]sulfonyl}-2-(3-hydroxy-2,2-dimethylpropyl)-1-oxo-1,2-dihydroisoquinolin-6-yl]-N-cyclopropyl-5-fluoro-4-methylbenzamide]
0.794 nM	Cc1c(F)cc(C(=O)NC2CC2)cc1-c1ccc2c(=O)n(CC(C)(C)CO)cc(S(=O)(=O)NCCN(C)C)c2c1 [Example 56, N-cyclopropyl-3-[4-{[2-(dimethylamino)ethyl]sulfamoyl}-2-(3-hydroxy-2,2-dimethylpropyl)-1-oxo-1,2-dihydroisoquinolin-6-yl]-5-fluoro-4-methylbenzamide]
0.158 nM	Cc1c(F)cc(C(=O)NC2CC2)cc1-c1ccc2c(=O)n(CC3(CO)CC3)cc(S(=O)(=O)N3CCCNCC3)c2c1 [Example 57]
0.316 nM	Cc1c(F)cc(C(=O)NC2CC2)cc1-c1ccc2c(=O)n(CC(C)(C)CO)cc(SC3CCNCC3)c2c1 [Example 58, N-Cyclopropyl-3-fluoro-5-[2-(3-hydroxy-2,2-dimethylpropyl)-1-oxo-4-(piperidin-4-ylsulfanyl)-1,2-dihydroisoquinolin-6-yl]-4-methylbenzamide]
